In patent publication US12239650B2, “Compounds for treating and preventing net associated complications” (The Australian National University, priority 2019, dated 2025):

Assays:
[1] = Rat cardiac ischemia reperfusion injury model; format: in vivo; conditions: rats, 30 mg kg^−1 into left ventricle 5 min prior to reperfusion, FIG. 7c
Source text: Rat cardiac ischemia reperfusion injury model. The method used is based on a combination of previously published procedures (Takada, Y., Hashimoto, M., Kasahara, J., Aihara, K. & Fukunaga, K. Cytoprotective effect of sodium orthovanadate on ischemia/reperfusion-induced injury in the rat heart involves Akt activation and inhibition of fodrin breakdown and apoptosis. J Pharmacol Exp Ther 311, 1249-1255 (2004); and Hale, S. L., Dae, M. W. & Kloner, R. A. Hypothermia during reperfusion limits ‘no-reflow’ injury in a rabbit model of acute myocardial infarction. Cardiovasc Res 59, 715-722 (2003)). Male Wistar rats were anaesthetized with isofluorane, intubated via tracheostomy and ventilated with a tidal volume of 1 ml 150 g^−1 and a respiratory rate of 65 breaths min^−1. Supplemental oxygen was delivered at a FiO2 of ˜30%. […]
At the conclusion of reperfusion (30 min), Thioflavin S (1 ml 200 g^−1 of body weight) was slowly injected into the lumen of the left ventricle, to define the territory of microvascular obstruction (MVO) within the ischemic zone (IZ). The IZ territory was determined by the re-occlusion of the atraumatic snare and infusion of blue microspheres into the left ventricle (Unisperse Blue, BASF), distributed within solutions via ultrasonication using a CD-6800 (Unisonics) sonicator. […] Planimetry (Image J, Freeware) was used to quantify the areas of the IZ, MVO and necrosis.

[2] = test system: histone-induced platelet aggregation; assay: Histone-induced aggregation of isolated platelets; format: cell-based, human; conditions: FIG. 4b; for Inhibition of histone-induced platelet aggregation: histones 150 μg/mL, isolated platelets
Description: In vitro platelet aggregation and degranulation assays. For aggregation studies platelets were isolated from human whole blood collected into Na-citrate vacutainers through 2-step centrifugation at room temperature (200×g for 20 min then the platelet-rich plasma 800×g for 15 min), the platelet pellet resuspended in Hank's balanced salt solution containing calcium and magnesium and histones added and incubated in the presence/absence of compounds at the concentrations of each as indicated. Samples were assessed for degree of platelet aggregation after 15 min exposure to histones by flow cytometry using the characteristic log FSC versus log SSC identification of platelets, with increases in the geometric mean of log FSC indicative of platelet aggregation.

[3] = Rat caecal ligation and puncture (CLP) assay for sepsis; format: in vivo; conditions: for Mortality in CLP model of sepsis: rats n=8/group, 50 mg kg^−1 i.p. 5 min pre-CLP and 5, 10, 15 h post-op, 20 h, FIG. 7a; for High ALT and creatinine levels (liver and kidney damage) in CLP rats: 50 mg kg^−1 i.p., versus untreated group, FIG. 7b
Description: Rat caecal ligation and puncture (CLP) assay for sepsis. […] Test compounds (50 mg kg^−1) dissolved in saline or an equivalent volume of saline only (Control cohort) were administered i.p. 5 min pre-CLP and 5, 10 and 15 h post-op until cessation of the experiment at 20 h. Sham-CLP rats underwent the same procedure, however, the caecum was not ligated or punctured and these rats received saline at the same times as above. At the conclusion of the experimental time period (20 h) or when morbidity required ethical euthanasia, the rats were anaesthetized and blood was collected via cardiac puncture into EDTA for subsequent analysis of liver (ALT) and kidney (creatinine) function by the Department of Pathology, The Canberra Hospital.

histones = assay: In-vivo histone toxicity assay; conditions: mice; for Relative potency in protecting from histone-induced tissue pathologies / Protection from histone-induced liver damage, generalised tissue injury and kidney failure (circulating ALT, LDH, creatinine): FIG. 6a; for Protection from histone-induced liver damage, generalised tissue injury and kidney failure (circulating ALT, LDH, creatinine): compound i.p. 10 min prior to i.v. histones 50 mg kg^−1, blood 4 h post-histones, concentration-dependent
Description: In-vivo histone toxicity assays. BALB/c female mice (5-6 weeks of age), that are more prone to histone-induced anemia and easier to inject i.v. at this young age than C57BL/6 mice, were injected i.p. with test compounds at concentrations indicated 10 min prior to i.v. injection of histones (50 mg kg^−1) in phosphate buffered saline. Retro-orbital bleeds were performed with glass Pasteur pipettes 10 min after histone injection and collected blood added to acid citrate dextrose (ACD), the 10 min blood sample being subjected to hematologic analyses for platelet and erythrocyte content using an ADVIA 2120i Hematology Analyzer. Spleens were also harvested at 10 min post-histone injection and splenic hemoglobin content quantified using a hemoglobin assay kit (Sigma-Aldrich). In the case of 4 h blood samples, male C57/BL/6 mice (6-8 weeks of age) were injected with test compounds and histones as above and plasma isolated and stored frozen for subsequent biochemical testing, with markers for liver (alanine aminotransferase, ALT), kidney (creatinine, Crea) and general tissue (lactate dehydrogenase, LDH) damage being determined by the Department of Pathology, The Canberra Hospital.

[4] = test system: anti-proliferative effect of sepsis patients sera on HMEC-1; format: cell-based, human; conditions: HMEC-1, test compounds 200 μg ml^−1, FIG. 9d
Description: Detection and analysis of cytotoxicity of septic patient sera for endothelial cells. To measure the cytotoxic activity of septic patients sera for endothelial cells in-vitro, HMEC-1 were seeded into 96-well plates at 2.5×10^4 well^−1 in medium and grown at 37° C. in 5% CO2 for 48 h prior to the addition of 50 μl of patient serum in the presence/absence of DNase I (10 μg ml^−1), anti-human histone 3 and histone 4 rabbit pAbs (200 μg ml^−1) (BioVision), or test compounds (200 μg ml^−1) and incubated for 3 h. ^3H-thymidine (0.5 μCi, MP Biomedical) was then added to each culture well in 20 μl of HMEC-1 medium and incubated for a further 24 h. At the conclusion of the incubation period plates were subjected to 3 freeze/thaw cycles (−70° C. for 30 min, then 37±0.5° C. for 30 min) prior to harvesting and measurement of ^3H-thymidine incorporation. […] Filters were dried at 80° C. and placed in Omnifilter plates (Perkin Elmer) then 20 μl of Microscint-O scintillation fluid (Perkin Elmer) was added to each well and the plate sealed with TopSeal-A adhesive film (Perkin Elmer). ^3H-thymidine incorporation was measured using a TopCount NXT™ Microplate Scintillation and Luminescence Counter (Packard Bioscience). Results expressed as a percentage of the proliferation of HMEC-1 not exposed to patient sera.

| SMILES | Reduction of area of microvascular obstruction and myocardial necrosis in the ischemic zone [1] | Inhibition of histone-induced platelet aggregation [2] | Mortality in CLP model of sepsis [3] | High ALT and creatinine levels (liver and kidney damage) in CLP rats [3] | Relative potency in protecting from histone-induced tissue pathologies (histones) | Protection from histone-induced liver damage, generalised tissue injury and kidney failure (circulating ALT, LDH, creatinine) (histones) | Effect on anti-proliferative activity of the 10 most inhibitory septic patient sera [4] | Relative activity in inhibiting histone-induced platelet aggregation [2] | Histone-induced thrombocytopenia and anaemia (histones; 100 mg kg^−1 i.p., 10 min post-histones, FIG. 6b) |
| --- | --- | --- | --- | --- | --- | --- | --- | --- | --- |
| O=S(=O)(O)OC[C@H]1O[C@@H](O[C@H]2[C@H](OS(=O)(=O)O)[C@@H](OS(=O)(=O)O)C(OS(=O)(=O)O)O[C@@H]2COS(=O)(=O)O)[C@H](OS(=O)(=O)O)[C@@H](OS(=O)(=O)O)[C@@H]1OS(=O)(=O)O (stereo partly shown) [CBS, cellobiose per-O-sulfate] | 50% | completely inhibited | no mortality | not seen | equally active | protected | significantly overrode | – | – |
| O=S(=O)(O)OC[C@H]1O[C@H](O[C@H]2[C@H](OS(=O)(=O)O)[C@@H](OS(=O)(=O)O)C(OS(=O)(=O)O)O[C@@H]2COS(=O)(=O)O)[C@H](OS(=O)(=O)O)[C@@H](OS(=O)(=O)O)[C@@H]1O[C@H]1O[C@H](COS(=O)(=O)O)[C@@H](OS(=O)(=O)O)[C@H](OS(=O)(=O)O)[C@H]1OS(=O)(=O)O (stereo partly shown) [MTS, maltotriose per-O-sulfate] | totally ineffectual | completely inhibited | only one death | only partially reduced | most potent | protected | did not | most active | prevented |
